Values joined by “and” are separate entries in the source; they are usually repeats but may differ in a detail not shown here. Equal values may be shown once. Read-outs that look alike come from different tables or passages of the source.
What was measured:
[1] = molecular target: T1, chymotrypsin-like activity of the purified rabbit 20S proteasome (Oryctolagus cuniculus, UniProt G1T4Q9); assay: 20S proteasome inhibition assay, fluorogenic substrate Suc-Leu-Leu-Val-Tyr-AMC; type: biochemical; conditions: for decrease of proteasome inhibition activity: 14u, 14v vs linear-chain analogues, 14q vs lead compound 10a; for proteasome inhibitory activity, SAR statement in words: chymotrypsin-like activity, compared with lead or analogue;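 on all read-outs here: enzyme and 20 µM substrate incubated 1 h at 37 °C in Tris-HCl buffer pH 7.6, fluorogenic read-out, inhibition calculated against vehicle control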
T1 sequence (G1T4Q9 1-263): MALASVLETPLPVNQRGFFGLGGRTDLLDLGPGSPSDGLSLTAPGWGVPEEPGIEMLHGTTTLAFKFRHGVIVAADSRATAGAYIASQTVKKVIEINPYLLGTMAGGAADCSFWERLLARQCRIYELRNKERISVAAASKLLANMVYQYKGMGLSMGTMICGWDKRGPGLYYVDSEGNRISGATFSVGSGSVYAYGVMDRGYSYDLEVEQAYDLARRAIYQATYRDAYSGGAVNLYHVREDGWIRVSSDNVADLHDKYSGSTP

[2] = molecular target: T2, CT-L (Homo sapiens, UniProt P28074); assay: Inhibition of CT-L in cell culture; type: cell-based
T2 construct: endogenous in cells
T2 sequence (P28074 60-263): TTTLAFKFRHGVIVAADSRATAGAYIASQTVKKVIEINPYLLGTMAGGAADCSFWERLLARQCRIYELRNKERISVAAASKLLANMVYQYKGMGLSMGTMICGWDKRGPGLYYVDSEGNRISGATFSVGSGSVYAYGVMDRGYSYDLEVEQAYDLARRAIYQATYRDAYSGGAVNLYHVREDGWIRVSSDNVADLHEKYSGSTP

[3] = test system: human tumor cell lines (breast, pancreatic and ovarian); assay: Selective inhibition of human tumor cell lines over normal cells; type: cell-based; conditions: three human tumor cell lines (breast, pancreatic, ovarian) over normal cells
[4] = individual determinations (runs M-1096, M-1098, M-1099, AK or dated), read-out: Chymotrypsin-like Activity IC50
[5] = mean of the individual determinations, read-out: Chymotrypsin-like Activity IC50 (μM), mean ± spread (n)
[6] = read-out: IC50 (μM)* In Cell culture against CT-L
[7] = 30 μM, runs M-1096, M-1098, M-1099

Row | SMILES | IC50 [1, 4] | melting point | IC50 [1, 5] [µM] | IC50 [2, 6] | other results
1 | O=S(=O)(Nc1cc(I)c(O)c2ccccc12)c1cccs1 [YG1-033, N-(3-iodo-4-hydroxynaphthalen-1-yl)thiophene-2-sulfonamide] | 26 µM and > 100 µM and 28 µM | 134 to 136 °C |  |  | 
2 | CCOC(=O)CSC1=C/C(=N\S(=O)(=O)c2ccccc2)c2ccccc2C1=O [YG1-110, Ethyl 2-(1-oxo-4-(phenylsulfonylimino)-1,4-dihydronaphthalen-2-ylthio)acetate] | 1.04 µM and 1.86 µM and 2.06 µM and 2.35 µM and 3.8 µM | 93 to 95 °C | 2.22 |  | 
3 | O=C1C(Cl)=C(Nc2ccc(S(=O)(=O)Nc3ccccn3)cc2)C(=O)c2ccccc21 [PI-083, reference compound] | 2.1 µM and 1.4 µM and 2.5 µM and 0.9 µM |  | 1.73 | 4.3 µM and 3.7 µM | selective inhibition of tumor cell lines over normal cells [3]: selective inhibition; Chymotrypsin-like Activity Inhibition at 30 μM [1, 7]: 86% and 83%; inhibition at 30 µM [1, 7]: 87%
4 | CCOC(=O)CSc1cc(NS(=O)(=O)c2ccc(-c3ccccc3)cc2)c2ccccc2c1O [14r, Ethyl 2-(4-(biphenyl-4-ylsulfonamido)-1-hydroxynaphthalen-2-ylthio)acetate] |  | 166 to 168 °C |  |  | 
5 | O=C(O)CSc1cc(NS(=O)(=O)c2ccc(-c3ccccc3)cc2)c2ccccc2c1O [YG1-152, 2-(4-(biphenyl-4-ylsulfonamido)-1-hydroxynaphthalen-2-ylthio)acetic acid] | 0.81 µM and 2.48 µM and 2.28 µM and 1.74 µM and 2.2 µM |  |  | > 100 µM and 83 µM | IC50 ([1]; value quoted in running text / FIG. 11, read-out: IC50 against chymotrypsin-like proteasome activity): 1.9 µM
6 | O=S(=O)(Nc1cc(Sc2ncn[nH]2)c(O)c2ccccc12)c1cccs1 [YG1-159-2, N-(3-(1H-1,2,4-triazol-5-ylthio)-4-hydroxynaphthalen-1-yl)thiophene-2-sulfonamide] | 1.4 µM and 6.55 µM and 7.4 µM and 5.6 µM and 6.6 µM and 0.85 µM and 1.12 µM |  | 4.22 | 4.8 µM and 5.1 µM | proteasome inhibitory activity, SAR statement in words [1]: comparable inhibition potency
7 | CCOC(=O)CSc1cc(NS(=O)(=O)c2ccccc2)c2ccccc2c1O [YG1-113, Ethyl 2-(1-hydroxy-4-(phenylsulfonamido)naphthalen-2-ylthio)acetate] | 1.74 µM and 7 µM and 8.7 µM and 2.75 µM and 6.4 µM | 118 to 120 °C |  |  | proteasome inhibitory activity, SAR statement in words [1]: reduced compared to acid analogues
8 | COC(=O)CCSC1=C/C(=N\S(=O)(=O)c2cccs2)c2ccccc2C1=O [8b, Methyl 3-(1-oxo-4-(thiophen-2-ylsulfonylimino)-1,4-dihydronaphthalen-2-ylthio) propanoate] |  | 140 to 142 °C |  |  | 
9 | O=C1C(N2CCOCC2)=C/C(=N\S(=O)(=O)c2cccs2)c2ccccc21 [YG1-129, N-(3-morpholino-4-oxonaphthalen-1(4H)-ylidene)thiophene-2-sulfonamide] | > 10 µM | 195 °C (dec.) |  |  | 
10 | O=C(O)c1ccccc1Sc1cc(NS(=O)(=O)c2cccs2)c2ccccc2c1O [YG1-155, 2-(1-hydroxy-4-(thiophene-2-sulfonamido)naphthalen-2-ylthio)benzoic acid] | 1.12 µM and 4.6 µM and 5.32 µM and 7.7 µM and 7.1 µM and 1.04 µM and 1.5 µM | 215 °C (dec.) | 4.05 |  | 
11 | O=C(O)CSc1cc(NS(=O)(=O)c2cc(Cl)c(Cl)s2)c2ccccc2c1O [HL4-098-2, 2-(4-(4,5-dichlorothiophene-2-sulfonamido)-1-hydroxynaphthalen-2-ylthio)acetic acid] | 1.05 µM and 2.4 µM and 2.67 µM |  |  | 25 µM and 17.4 µM | 
12 | O=C(O)CSc1cc(NS(=O)(=O)c2cccs2)c2ccccc2c1O [HLM008182, 2-(1-hydroxy-4-(thiophene-2-sulfonamido)naphthalen-2-ylthio)acetic acid] |  |  | 2.2 | 8.9 µM | IC50 ([2]; listed as YG1-066, read-out: IC50 (μM)* In Cell culture against CT-L): 7.3 µM; proteasome inhibitory activity, SAR statement in words [1]: comparable proteasome inhibition activity; IC50 ([1]; sample kept r.t. 2 weeks in DMSO, read-out: Chymotrypsin-like Activity IC50 (μM), r.t. 2 weeks in DMSO (converted)): 2.76 µM and 1.64 µM
13 | CCOC(=O)CSc1cc(NS(=O)(=O)c2cccs2)c2ccccc2c1O [9a, Ethyl 2-(1-hydroxy-4-(thiophene-2-sulfonamido)naphthalen-2-ylthio)acetate] |  |  |  |  | proteasome inhibitory activity, SAR statement in words [1]: reduced compared to acid analogues
14 | O=C(O)CCSc1cc(NS(=O)(=O)c2cccs2)c2ccccc2c1O [YG1-116, 3-(1-hydroxy-4-(thiophene-2-sulfonamido)naphthalen-2-ylthio)propanoic acid] | 7.4 µM | 185 °C (dec.) |  |  | proteasome inhibitory activity, SAR statement in words [1]: the inhibitory activity diminished
15 | COC(=O)CCSc1cc(NS(=O)(=O)c2cccs2)c2ccccc2c1O [9b, Methyl 3-(1-hydroxy-4-(thiophene-2-sulfonamido)naphthalen-2-ylthio)propanoate] |  | 117 to 119 °C |  |  | 

Second part, led by results:

Row | IC50 [1, 4] | melting point | IC50 [1, 5] [µM] | IC50 [2, 6] | SMILES | other results
16 | 9.5 µM and > 10 µM and 8 µM | 177 to 179 °C |  |  | CC(Sc1cc(NS(=O)(=O)c2ccc(Cl)cc2)c2ccccc2c1O)C(=O)O (centres unmarked) [YG2-024-1, 2-(4-(4-chlorophenylsulfonamido)-1-hydroxynaphthalen-2-ylthio)propanoic acid] | decrease of proteasome inhibition activity [1]: ~2 fold
17 | 1.34 µM and 4.38 µM and 3.85 µM and 2.1 µM and 2.09 µM | 197 °C (dec.) | 2.75 |  | O=C1C(Sc2ncn[nH]2)=C/C(=N\S(=O)(=O)c2cccs2)c2ccccc21 [YG1-158-2, N-(3-(1H-1,2,4-triazol-5-ylthio)-4-oxonaphthalen-1(4H)-ylidene)thiophene-2-sulfonamide] | 
18 | > 10 µM and 4 µM and 5.9 µM | 185 to 187 °C |  |  | O=C(O)CSc1cc(NS(=O)(=O)c2ccc3ccccc3c2)c2ccccc2c1O [YG2-034-2, 2-(1-hydroxy-4-(naphthalene-2-sulfonamido)naphthalen-2-ylthio)acetic acid] | decrease of proteasome inhibition activity [1]: 3 fold
19 | 2.32 µM and 2.44 µM and 1.84 µM | 205 °C (dec.) |  |  | O=C(O)c1ccccc1Sc1cc(NS(=O)(=O)c2ccc(-c3ccccc3)cc2)c2ccccc2c1O [YG1-168, 2-(4-(biphenyl-4-ylsulfonamido)-1-hydroxynaphthalen-2-ylthio)benzoic acid] | 
20 | 0.73 µM and 2.42 µM and 2.7 µM and 2.3 µM and 2.2 µM |  | 2.07 | 8 µM and 10 µM | O=C(O)CSc1cc(NS(=O)(=O)c2ccc(Cl)s2)c2ccccc2c1O [YG1-153, 2-(4-(5-chlorothiophene-2-sulfonamido)-1-hydroxynaphthalen-2-ylthio)acetic acid] | 
21 | 2.28 µM and 2.12 µM and 2.4 µM |  | 2.27 | 8.9 µM and 6.9 µM | O=C(O)CSC1=CC(=NS(=O)(=O)c2cccs2)c2ccccc2C1=O (stereo in doubt) [YG2-176, (Z)-2-(1-oxo-4-(thiophen-2-ylsulfonylimino)-1,4-dihydronaphthalen-2-ylthio)acetic acid] | proteasome inhibitory activity, SAR statement in words [1]: comparable inhibitory potency
22 | > 10 µM | 120 to 122 °C |  |  | CC(C)(C)OC(=O)COC1=CC(=O)c2ccccc2C1=O [YL2-013, tert-Butyl 2-(1,4-dioxo-1,4-dihydronaphthalen-2-yloxy)acetate] | 
23 | 2.11 µM and 6.45 µM and 6.6 µM and 6.55 µM and 1.54 µM and 2.18 µM |  |  | 6.4 µM | Cn1nnnc1Sc1cc(NS(=O)(=O)c2cccs2)c2ccccc2c1O [YG1-159-1, N-(4-hydroxy-3-(1-methyl-1H-tetrazol-5-ylthio)naphthalen-1-yl)thiophene-2-sulfonamide] | proteasome inhibitory activity, SAR statement in words [1]: comparable inhibition potency
24 | 9.6 µM and 8.45 µM | 176 to 178 °C |  |  | CC(Sc1cc(NS(=O)(=O)c2ccc3ccccc3c2)c2ccccc2c1O)C(=O)O (centres unmarked) [YG2-024-2, 2-(1-hydroxy-4-(naphthalene-2-sulfonamido)naphthalen-2-ylthio)propanoic acid] | decrease of proteasome inhibition activity [1]: ~2 fold
25 | > 10 µM and 3.44 µM and 4.15 µM |  |  |  | O=C(O)CSc1cc(NS(=O)(=O)c2ccc(Cl)cc2)c2ccccc2c1O [YG2-034-1, 2-(4-(4-chlorophenylsulfonamido)-1-hydroxynaphthalen-2-ylthio)acetic acid] | 
26 | > 10 µM |  |  |  | O=C(O)CCCOc1ccc(NS(=O)(=O)c2cccs2)c2ccccc12 [YG2-094, 4-(4-(thiophene-2-sulfonamido)naphthalen-1-yloxy)butanoic acid] | 
